Assay [1] addresses T1, Hsp90α (Homo sapiens, UniProt P07900).
T1 construct: purchased Stressgen Bioreagents SPP-776
The assay is described as follows: Human Hsp90α fluorescence polarization competition assay with Example 37 tracer. The note with it: displacement of 50 nM example 37 tracer, 125 nM Hsp90α, 1 h 30 min, 20° C.; read-out: Relative binding affinity values (IC50) obtained from FP measurements. The text has this:
The aim of this study was to determine the binding ability of compounds of the invention to the N-terminal ATP binding site of Hsp90. For that purpose competition assays with fluorescently labeled Hsp90 binders were used (compounds of examples 37 and 41).
Compounds of examples 37 and 41 are structurally based on 8-(6-Iodo-benzo[1,3]dioxol-5-ylsulfanyl)-9-(3-isopropylamino-propyl)-9H-purin-6-ylamine, a known binder of the N-terminal ATP binding site of Hsp90 which has the ability of inhibiting the Hsp90 function (cf. Chiosis G. et al. “Identification of Potent Water Soluble Purine-Scaffold Inhibitors of the Heat Shock Protein 90”, J. Med. Chem., 2006, vol. 49, no. 1, p. 381). Compounds 37 and 41 keep the essential structural features of the known binder (which means that said compounds are able to bind to the ATP binding site) and incorporate a fluorescent probe which allows the detection of the binding by fluorescence polarization.
When the binders of examples 37 and 41 are used in the competition assay, in a first step said binders are allowed to interact with the N-terminal ATP binding site of Hsp90. Then the compounds of the invention are added and it is determined if they are able to bind to the N-terminal ATP binding site (which will imply that the binders of examples 37 and 41 have been replaced from the N-terminal ATP binding site). If after performing the assay, the binding between the tested compound of the invention and the Hsp90 is observed, this will be indicative that the compound of the invention has been bound to the ATP binding site of Hsp90 and, therefore, can inhibit the Hsp90.
Once compounds of examples 37 and 41 were synthesized as reported above, they were dissolved at 238 μM and 1 mM in DMSO respectively (Sigma-Aldrich, cat. No. 154938). Hsp90α was purchased from Stressgen Bioreagents (cat. No. SPP-776; Victoria, Canada). The assay buffer contained 100 mM Tris·HCl, pH 7.4, 20 mM KCl, 6 mM MgCl2. Before each use 5 μg/mL bovine serum albumin (BSA, Pierce, Rockford (Ill.), cat No. 23209), 0.25 mM TCEP (Sigma, cat No. 64706) and 0.01% NP40 (Nonidet P40 Substitute, Fluka, cat No. 74385) were freshly added (cf. Howes et al., “A fluorescence polarization assay for inhibitors of Hsp90”, Analytical Biochemistry, 2006, vol. 350, p. 202-213; Kim et al., “Development of a fluorescence polarization assay for the molecular chaperone Hsp90”, J. Biomol. Screen., 2004, vol. 9 (5)).
Fluorescence polarization measurements were performed on an Infinite F200 (Tecan, Austria). Measurements were taken in black 96-well microplates (Corning Costar No. 3650) in which both the excitation and the emission occurred from the top of the wells. In the Infinite F200, a xenon arc lamp provides excitation light that passes through a 485 nm (20-nm bandwidth) excitation filter and then a polarizer filter. A beam splitter filter directs the polarized excitation light into the well, and emitted fluorescence transmits back through the same beam-splitter filter, through a polarizer filter, and then through a 535 nm (25-nm bandwidth) emission filter for detection (Kim et al., supra). The read time per well was 20 μs, and the number of reads per well was 25.
Compounds were assayed over a three-fold dilution series in a 96-well plate format to determine IC50 values. The serial dilution was performed in a separate 96-well plate (Thermowell 96 well PCR plate, Non-Treated Polypropylene, Corning Costar No. 6551) at 50 times final assay concentration in DMSO. (Howes et al, supra). 2 μl of compound was transferred to a black 96-well plate (Corning Costar No. 3650) and 98 μL of reaction solution (100 mM Tris·HCl, pH 7.4, 20 mM KCl, 6 mM MgCl2, 5 μg/mL bovine serum albumin (BSA), 0.25 mM TCEP, 0.01% NP40, 50 nM the compound of example 37, 125 nM Hsp90α) was added per well. The plate was allowed to equilibrate for 1 h 30 min on a slow moving shaker at 20° C. in the dark. […]
On the technique in general: In fluorescence polarisation assays a small probe gives low polarisation when free and higher when bound to something large.

The subject of assay [2] is HCT-116. The assay is described as follows: Cell growth inhibition by AlamarBlue method, HCT-116. The format is cell-based. The following applies: Homo sapiens; HCT-116, 72 hours; read-out: Cell growth inhibition values (EC50) obtained with AlamarBlue method. As to the method:
(§1) The human colon cancer cell line HCT-116 and the human breast cell lines MCF-7 and SKBr3 were from the American Type Culture Collection (ATCC; CCL-247, HTB-22 and HTB-30, respectively).
(§2) The HCT-116 and SKBr3 cell lines were maintained in DMEM GlutaMAX (Invitrogen) supplemented with 10% fetal calf serum and the MCF-7 cell line was maintained in RPMI1640 GlutaMAX (Invitrogen) containing 1 mM sodium pyruvate and 10% fetal calf serum. Cells were grown in a humidified incubator at 37° C. in 5% CO2
(§3) Cells were plated in 96-well plates (Costar, 3596) at a density of 6000 cells/well in 50 μL medium 24 h before addition of the compounds. Compounds were then added in 8 concentrations, each in triplicate (dilution series of 1 to 3). To do so, a compound-dilution plate at 200× the screening concentrations was prepared in DMSO 100% (Sigma, 154938). Then, 1.7 μL of the 200× diluted compounds were transferred to a new plate and 170 μL of media were added and mixed with the pipette (plate at 2×). Columns 11 and 12 of this plate (controls) were filled with 1% DMSO in cell media (i.e. 1.7 μL DMSO and 170 μL cell media). Finally, 50 μL of this intermediate plate at 2× were transferred to the plate containing the seeded cells and slowly shaken manually. Cells were grown as described above. AlamarBlue viability assay (Biosource, Invitrogen, DAL1100) was performed 72 hours later following manufacturer's protocol. In brief, AlamarBlue diluted in media was added to cells to have a 5% solution (a 2× solution was prepared in media and 100 μL of this solution were transferred to each well, i.e. final volume of 200 μL). Cells were incubated at 37° C., 3 hours and at room temperature for an additional 30 min. Cells with no compound and, cells with no compound and lysed with triton X-100 (30 μL/well added 10 min before treatment with AlamarBlue) were used as controls (6 replicates of each). Fluorescence was monitored at 530 nm excitation and 590 nm emission wavelengths. Results were quantified using ELx800 Universal Microplate Reader (Bio-Tek Instruments, Inc.). EC50 were calculated as the dose of compound required to inhibit cell growth by 50%.
For orientation: Resazurin is reduced to fluorescent resorufin, in cell work by metabolically active cells.

For assay [3], the system named is SKBr3. The assay is described as follows: Cell growth inhibition by AlamarBlue method, SKBr3. The format is cell-based. The following applies: Homo sapiens, SK-BR-3; SKBr3, 72 hours; read-out: Cell growth inhibition values (EC50) obtained with AlamarBlue method. On the procedure:
as §1, §2, §3

For orientation: IC50 means the concentration needed to halve the response being measured. In general, EC50 refers to the concentration giving half of the maximal effect.

As for `CSc1cc2c(cc1Sc1nc(C(N)=O)c(N)n1C)CCO2` [Example 99, 5-amino-2-{[6-(methylthio)-2,3-dihydro-1-benzofuran-5-yl]thio}-methyl-1H-imidazole-4-carboxamide], in assay [1], the IC50 was 13 µM. The EC50 was found to be 85 µM in assay [2] and 55 µM in assay [3].

In the case of `CCSc1cc2c(cc1Sc1nc(C(N)=O)c(N)n1CCCN(CC)CC)OCO2` [Example 100, 5-amino-2-{[6-(ethylthio)-1,3-benzodioxol-5-yl]thio}-1-[3-(diethylamino)propyl]-1H-imidazole-4-carboxamide], the 50% inhibitory concentration (IC50) in assay [1] is 1.45 µM. In addition, the EC50 in assay [2] turned out to be 1.2 µM.

Regarding `NC(=O)c1nc(Sc2cc3c(cc2I)OCO3)n(CCCN2CCOCC2)c1N` [Example 87, 5-amino-2-[(6-iodo-1,3-benzodioxol-5-yl)thio]-1-(3-morpholin-4-ylpropyl)-1H-imidazole-4-carboxamide], the half-inhibitory concentration (IC50) in assay [1] worked out at 0.9 µM. The figures for the EC50 in assay [2] and in assay [3] were 1 µM and 4.6 µM, respectively.

Take `CSc1cc2c(cc1Sc1nc(C(N)=O)c(N)n1C)OCO2` [Example 81, 5-amino-1-methyl-2-{[6-(methylthio)-1,3-benzodioxol-5-yl]thio}-1H-imidazole-4-carboxamide]: the IC50 in assay [1] is 4 µM. The EC50 in assay [3] was 23 µM.

Regarding `CCOc1cc2c(cc1Sc1nc(C(N)=O)c(N)n1C)OCO2` [Example 79, 5-amino-2-[(6-ethoxy-1,3-benzodioxol-5-yl)thio]-1-methyl-1H-imidazole-4-carboxamide], the IC50 in assay [1] is 12.5 µM. Moreover, the EC50 in assay [2] came to 91.5 µM.

Take `Cn1c(Sc2cc3c(cc2I)OCO3)nc(C(N)=O)c1N` [Example 85, 5-amino-2-[(6-iodo-1,3-benzodioxol-5-yl)thio]-1-methyl-1H-imidazole-4-carboxamide]: the half-inhibitory concentration (IC50) in assay [1] is 5.3 µM.

Regarding `CCN(CC)CCCn1c(Sc2cc3c(cc2Br)OCO3)nc(C(N)=O)c1N` [Example 89, 5-amino-2-[(6-bromo-1,3-benzodioxol-5-yl)thio]-1-[3-(diethylamino)propyl]-1H-imidazole-4-carboxamide], in assay [1], the IC50 is 4.8 µM. Besides, in assay [3], the EC50 turned out to be 18 µM.

As for `Cn1c(Sc2cc3c(cc2S(C)(=O)=O)OCO3)nc(C(N)=O)c1N` [Example 83, 5-amino-1-methyl-2-{[6-(methylsulfonyl)-1,3-benzodioxol-5-yl]thio}-1H-imidazole-4-carboxamide], in assay [1], the IC50 came out at 8 µM. Besides, in assay [2], the EC50 was 26.1 µM.

As to `CC(=O)Nc1c(C(N)=O)nn(Cc2cc3c(cc2Br)OCO3)c1C` [Example 93, 4-(acetylamino)-1-[(6-bromo-1,3-benzodioxol-5-yl)methyl]-5-methyl-1H-pyrazole-3-carboxamide], the 50% effective concentration (EC50) in assay [2] was 30.5 µM.

For the molecule `CCC(=O)Nc1c(C(N)=O)nn(Cc2cc3c(cc2Br)OCO3)c1C` [Example 94, 1-[(6-bromo-1,3-benzodioxol-5-yl)methyl]-5-methyl-4-(propionylamino)-1H-pyrazole-3-carboxamide], the EC50 in assay [2] came to 2.1 µM.

In the case of `Cn1c(Sc2cc3c(cc2Br)OCO3)nc(C(N)=O)c1N` [Example 73, 5-amino-2-[(6-bromo-1,3-benzodioxol-5-yl)thio]-1-methyl-1H-imidazole-4-carboxamide], the IC50 in assay [1] worked out at 15 µM. Moreover, in assay [2], the EC50 is 78 µM.

For `Cn1c(Sc2nc3cccc(Cl)c3s2)nc(C(N)=O)c1N` [Example 51, 5-amino-2-(7-chloro-benzothiazol-2-ylsulfanyl)-1-methyl-1H-imidazole-4-carboxamide], the IC50 in assay [1] worked out at 3.1 µM.

In the case of `CCN(CC)CCCn1c(Sc2cc3c(cc2I)OCO3)nc(C(N)=O)c1N` [Example 88, 5-Amino-2-[(6-iodo-1,3-benzodioxol-5-yl)thio]-1-[3-(diethylamino)propyl]-1H-imidazole-4-carboxamide], the IC50 in assay [1] was 0.6 µM. The EC50 in assay [3] is 1.1 µM.

Take `NC(=O)c1nc(Sc2cc3c(cc2Br)OCO3)n(CCCN2CCOCC2)c1N` [Example 86, 5-amino-2-[(6-bromo-1,3-benzodioxol-5-yl)thio]-1-(3-morpholin-4-ylpropyl)-1H-imidazole-4-carboxamide]: in assay [1], the IC50 was 3.4 µM. The EC50 in assay [2] amounted to 92 µM.

As for `Cc1c(N)c(C(N)=O)nn1Cc1cc2c(cc1Br)OCO2` [Example 92, 4-amino-1-(6-bromo-benzol[1,3]dioxol-5-ylmethyl)-5-methyl-1H-pyrazole-3-carboxamide], in assay [2], the concentration giving a half-maximal response (EC50) was determined as 21 µM.

With `CCCCn1c(Sc2cc(OC)ccc2OC)nc(C(N)=O)c1N` [Example 27, 5-amino-1-butyl-2-(2,5-dimethoxy-phenylsulfanyl)-1H-imidazole-4-carboxamide], the IC50 in assay [1] worked out at 200 µM.

Turning to `CC(=O)Nc1c(C(N)=O)nc(Sc2cc3c(cc2I)OCO3)n1CCCNC(C)C` [Example 69, 5-acetylamino-2-(6-iodo-benzo[1,3]dioxol-5-ylsulfanyl)-1-(3-isopropylamino-propyl)-1H-imidazole-4-carboxamide], the IC50 in assay [1] was found to be 200 µM.

On to `Cc1c(NS(C)(=O)=O)c(C(N)=O)nn1Cc1cc2c(cc1Br)OCO2` [Example 95, 1-[(6-bromo-1,3-benzodioxol-5-yl)methyl]-5-methyl-4-[(methylsulfonyl)amino]-1H-pyrazole-3-carboxamide], for which the EC50 in assay [2] stood at 83 µM.

In the case of `CC(C)c1cc2c(cc1Sc1nc(C(N)=O)c(N)n1C)OCO2` [Example 75, 5-amino-2-[(6-isopropyl-1,3-benzodioxol-5-yl)thio]-1-methyl-1H-imidazole-4-carboxamide], the half-inhibitory concentration (IC50) in assay [1] was determined as 56 µM.
